Results as given in US9676715B2, “Bis-indolic derivatives, a process for preparing the same and their uses as a drug” (UNIVERSITE JOSEPH FOURIER, priority 2011, dated 2017).

Columns and labels:
S. pneumoniae ATCC 6303 = assay: MIC, microdilution method (9.1); type: cell-based, Streptococcus pneumoniae; settings: Streptococcus pneumoniae, ATCC6303, 10% sheep blood, 5% CO2, 18 h, read-out: MIC
Summary of the method: (§1)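 Standard CLSI broth microdilution. Test range 0.50-128 mg/L (final), doubling steps.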

[1] = test system: S. agalactiae (group B) ATCC 12400; assay: MIC, microdilution method (9.1); type: cell-based, Streptococcus agalactiae; settings: Streptococcus agalactiae, ATCC12400, 18 h, read-out: MIC
Summary of the method: (§2)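 Using CLSI M07-A8 broth microdilution, MH broth, 37° C. in air; inoculum 5×10^5 CFU/ml; drug range 0.50-128 mg/L final.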

S. mitis CIP 103335 = assay: MIC, microdilution method (9.1); type: cell-based, Streptococcus mitis; settings: Streptococcus mitis, CIP103335, 18 h, read-out: MIC
Summary of the method: as §2

S. aureus ATCC 25923 = assay: MIC, microdilution method (9.1); type: cell-based, Staphylococcus aureus; settings: Staphylococcus aureus, ATCC25923, read after 18 h, read-out: MIC
Summary of the method: as §2

S. aureus ATCC 29213 = assay: MIC, microdilution method (9.1); type: cell-based, Staphylococcus aureus; settings: Staphylococcus aureus, ATCC29213, read after 18 h, read-out: MIC
Summary of the method: as §2

E. faecium CIP 54.32 = assay: MIC, microdilution method (9.1); type: cell-based, Enterococcus faecium; settings: Enterococcus faecium, CIP54, 18 h, read-out: MIC
Summary of the method: as §2

[2] = test system: Staphylococcus aureus K2378 (overexpresses the efflux pump NorA from a multicopy plasmid); assay: Efflux pump inhibition assay with sub-inhibitory ciprofloxacin; type: cell-based; settings: S. aureus K2378; in the presence of ciprofloxacin 0.5 mg/L
Protocol: (§3) The efflux pump inhibition potential of the bis-indolic derivatives was tested using two steps.
(§4) The following experimental protocol was used: indolic derivatives (initially solubilised in DMSO at 10 mg/mL) were dispensed in a 96-wells microplate by two fold serial dilutions in Muller-Hinton medium (MH, Bio Rad) using a Biomek 2000 (Beckman) handling robot. 100 μL of the bacterial inoculum (an overnight culture at 37° C. in 5 mL MH diluted 100-fold) was then added in each well. The total volume was 200 μL in each well and the final bacteria concentration 10^6 CFU/mL (CFU: colony forming unit). The highest final indolic derivative concentration was 128 mg/L. Growth was assayed with a microplate reader by monitoring absorption at 620 nm after 1, 2, 5, 7 and 24 h incubation at 37° C. In addition, the plates were read visually after 24 hours incubation. Cultures containing 5 μL DMSO were used as growth controls. In addition, two controls containing a sub-inhibitory or a inhibitory antibiotic concentration for the tested strain were performed. The antibiotics used were ampicillin (0.5 and 32 μg/mL) for E. coli, kanamycin (0.5 and 16 μg/mL) for S. aureus ATCC 25923, ciprofloxacin (4 and 64 mg/L) for S. aureus 1199B, ciprofloxacin (0.5 and 2 mg/L) for S. aureus K2378. All experiments were performed in duplicate.
(§5) Efflux pump inhibition assays were then performed against resistant Staphylococcus aureus strains SA 1199B and SA K2378 for bis-indolic derivatives. […] The minimal inhibitory concentration (MIC) of the bis-indolic compound allowing a complete inhibition of the bacterial growth in the presence of ciprofloxacin was determined.

[3] = test system: Staphylococcus aureus 1199B (overexpression of the NorA efflux pump); assay: as above; type: cell-based; settings: S. aureus 1199B
Protocol: as §3, §4, §5

E. faecalis ATCC 29212 = assay: MIC, microdilution method (9.1); type: cell-based, Enterococcus faecalis; settings: Enterococcus faecalis, ATCC29212, 18 h, read-out: MIC
Summary of the method: as §2

[4] = test system: Acinetobacter baumanii ATCC 19606; assay: MIC, microdilution method (9.1); type: cell-based; settings: Acinetobacter baumannii, ATCC19606, 18 h, read-out: MIC
Summary of the method: as §2

[5] = test system: Bacillus subtilis CIP 5262; assay: MIC, microdilution method (9.1); type: cell-based; settings: CIP5262, 18 h, read-out: MIC
Summary of the method: as §2

[6] = test system: Escherichia coli ATCC 25922; assay: MIC, microdilution method (9.1); type: cell-based; settings: ATCC25922, 18 h
Summary of the method: as §2

[7] = test system: Haemophilus influenzae ATCC 49766; assay: MIC, microdilution method (9.1); type: cell-based; settings: ATCC49766; Haemophilus influenzae ATCC 49766; 10% sheep blood, 5% CO2; 18 h; read-out: MIC
Summary of the method: as §1

[8] = test system: Enterobacter cloacae ATCC13047; assay: MIC, microdilution method (9.1); type: cell-based; settings: 18 h
Summary of the method: as §2

[9] = test system: Serratia marcescens CIP 103551; assay: MIC, microdilution method (9.1); type: cell-based; settings: CIP103551, 18 h
Summary of the method: as §2

[10] = test system: Listeria innocua CIP 80.11; assay: MIC, microdilution method (9.1); type: cell-based; settings: CIP80, 18 h, read-out: MIC
Summary of the method: as §2

[11] = test system: Klebsiella pneumoniae API ATCC 35657; assay: MIC, microdilution method (9.1); type: cell-based; settings: ATCC35657, 18 h, read-out: MIC
Summary of the method: as §2

[12] = test system: Pseudomonas aeruginosa CIP 5933; assay: MIC, microdilution method (9.1); type: cell-based; settings: CIP5933, 18 h, read-out: MIC
Summary of the method: as §2

S. pneumoniae ATCC 49619 = assay: MIC, microdilution method (9.1); type: cell-based; settings: Streptococcus pneumoniae, ATCC49619, 10% sheep blood, 5% CO2, 18 h
Summary of the method: as §1

[13] = test system: S. epidermidis ATCC 12228; assay: MIC, microdilution method (9.1); type: cell-based, Staphylococcus epidermidis; settings: Staphylococcus epidermidis, ATCC12228, read after 18 h, read-out: MIC
Summary of the method: as §2

[14] = test system: S. pyogenes (group A) CIP 104226; assay: MIC, microdilution method (9.1); type: cell-based, Streptococcus pyogenes; settings: Streptococcus pyogenes, CIP104226, 18 h, read-out: MIC
Summary of the method: as §2

[15] = test system: HCT116 (human colon tumor); assay: In vitro cytotoxicity; type: cell-based; settings: read-out: % of cellular growth inhibition; for inhibition at 10 µM: HCT-116, 10^−5 M; for inhibition at 1 µM: HCT-116, 10^−6 M
Protocol: (§6) In vitro cytotoxicity was assayed on three cell lines—KB (human mouth carcinoma), MCR5 (human lung fibroblast) and HCT116 (human colon tumor). Results are presented in table IV as % of cellular growth inhibition in presence of 10^−5 M and 10^−6 M of the tested bis-indolic derivatives.

[16] = test system: MRC5 (human lung fibroblast); assay: In vitro cytotoxicity; type: cell-based; settings: read-out: % of cellular growth inhibition; for inhibition at 10 µM: 10^−5 M; for inhibition at 1 µM: 10^−6 M
Protocol: as §6

[17] = test system: KB (human mouth carcinoma); assay: In vitro cytotoxicity; type: cell-based; settings: read-out: % of cellular growth inhibition; for inhibition at 10 µM: 10^−5 M; for inhibition at 1 µM: 10^−6 M
Protocol: as §6

S. aureus CIP 103428 = assay: MIC, microdilution method (9.1); type: cell-based, Staphylococcus aureus; settings: Staphylococcus aureus, CIP103428, read after 18 h, read-out: MIC
Summary of the method: as §2

S. aureus ATCC 9144 = assay: MIC, microdilution method (9.1); type: cell-based, Staphylococcus aureus; settings: Staphylococcus aureus, ATCC9144, read after 18 h, read-out: MIC
Summary of the method: as §2

S. aureus CIP 65.6 = assay: MIC, microdilution method (9.1); type: cell-based, Staphylococcus aureus; settings: Staphylococcus aureus, CIP65, read after 18 h, read-out: MIC
Summary of the method: as §2

[18] = test system: S. aureus ATCC 106414 (VISA); assay: MIC, microdilution method (9.1); type: cell-based, Staphylococcus aureus; settings: Staphylococcus aureus, read after 18 h, read-out: MIC
Summary of the method: as §2

[19] = test system: S. aureus CIP 65.25 (MRSA); assay: MIC, microdilution method (9.1); type: cell-based, Staphylococcus aureus; settings: Staphylococcus aureus, read after 18 h, read-out: MIC
Summary of the method: as §2

[20] = test system: S. aureus ATCC 33592 (MRSA); assay: MIC, microdilution method (9.1); type: cell-based, Staphylococcus aureus; settings: Staphylococcus aureus, read after 18 h, read-out: MIC
Summary of the method: as §2

S. aureus ATCC 6538 = assay: MIC, microdilution method (9.1); type: cell-based, Staphylococcus aureus; settings: Staphylococcus aureus, ATCC6538, read after 18 h, read-out: MIC
Summary of the method: as §2

S. aureus SA-1199B = assay: MIC, microdilution method (9.1); type: cell-based, Staphylococcus aureus; settings: Staphylococcus aureus, SA1199B, 18 h
Summary of the method: as §2

[21] = test system: S. epidermidis CIP 103627; assay: MIC, microdilution method (9.1); type: cell-based, Staphylococcus epidermidis; settings: Staphylococcus epidermidis, CIP103627, read after 18 h, read-out: MIC
Summary of the method: as §2

S. epidermidis CIP 81.55 = assay: MIC, microdilution method (9.1); type: cell-based, Staphylococcus epidermidis; settings: Staphylococcus epidermidis, CIP81, read after 18 h, read-out: MIC
Summary of the method: as §2

S. aureus = settings: penicillin M compounds; cited from earlier work
[22] = in the presence of ciprofloxacin 2 mg/L
[23] = in the presence of ciprofloxacin 4 mg/L

Structure (SMILES): CC(C)(C)OC(=O)NCC(NC(=O)c1c[nH]c2ccccc12)c1c[nH]c2ccccc12 (stereo not drawn) [Compound 3a, tert-Butyl (2-(1H-indol-3-yl)-2-(1H-indole-3-carboxamido)ethyl)carbamate]
- MIC (S. pneumoniae ATCC 6303): > 128 µg/mL
- MIC [1]: > 128 µg/mL
- MIC (S. mitis CIP 103335): > 128 µg/mL
- MIC (S. aureus ATCC 25923): > 128 µg/mL
- MIC (S. aureus ATCC 29213): > 128 µg/mL
- MIC (E. faecium CIP 54.32): > 128 µg/mL
- MIC, mg/L (Ciprofloxacin concentration, mg/L) [2]: 4 (0.5) mg/L
- MIC, mg/L (Ciprofloxacin concentration, mg/L) ([3]; in the presence of ciprofloxacin 1 mg/L): 2 (1) mg/L
- MIC, mg/L (Ciprofloxacin concentration, mg/L) [3, 22]: 0.5 (2) mg/L
- MIC, mg/L (Ciprofloxacin concentration, mg/L) [3, 23]: 0.25 (4) mg/L
- MIC (E. faecalis ATCC 29212): > 128 µg/mL
- MIC [4]: > 128 µg/mL
- MIC [5]: > 128 µg/mL
- MIC [6]: > 128 µg/mL
- MIC [7]: > 128 µg/mL
- MIC [8]: > 128 µg/mL
- MIC [9]: > 128 µg/mL
- MIC [10]: > 128 µg/mL
- MIC [11]: > 128 µg/mL
- MIC [12]: > 128 µg/mL
- MIC (S. pneumoniae ATCC 49619): > 128 µg/mL
- MIC [13]: > 128 µg/mL
- MIC [14]: > 128 µg/mL
- inhibition at 10 µM [15]: 22 ± 5%
- inhibition at 1 µM [15]: 11%
- inhibition at 10 µM [16]: 14 ± 1%
- inhibition at 1 µM [16]: 2%
- inhibition at 10 µM [17]: 18 ± 1%
- inhibition at 1 µM [17]: 16%

Structure (SMILES): O=C(NC(C(=O)O)c1c[nH]c2ccc(Br)cc12)c1c[nH]c2ccc(Br)cc12 (stereo not drawn) [Compound 12, 2-(5-Bromo-1H-indol-3-yl)-2-(5-bromo-1H-indole-3-carboxamido) acetic acid]
- MIC (S. aureus ATCC 25923): > 32 µg/mL
- MIC (S. aureus CIP 103428): > 32 µg/mL
- MIC (S. aureus ATCC 9144): > 32 µg/mL
- MIC (S. aureus CIP 65.6): > 32 µg/mL
- MIC [18]: > 32 µg/mL
- MIC [19]: > 32 µg/mL
- MIC [20]: > 32 µg/mL
- MIC (S. aureus ATCC 6538): > 32 µg/mL
- MIC (S. aureus SA-1199B): > 32 µg/mL
- MIC (S. aureus ATCC 29213): > 32 µg/mL
- MIC, mg/L (Ciprofloxacin concentration, mg/L) [2]: 64 (0.5) mg/L
- MIC, mg/L (Ciprofloxacin concentration, mg/L) [3, 22]: 32 (2) mg/L
- MIC, mg/L (Ciprofloxacin concentration, mg/L) [3, 23]: 64 (4) mg/L
- melting point: 195 °C
- MIC [21]: > 32 µg/mL
- MIC (S. epidermidis CIP 81.55): > 32 µg/mL
- MIC [13]: > 32 µg/mL
- inhibition at 10 µM [15]: 0%
- inhibition at 1 µM [15]: 0%
- inhibition at 10 µM [16]: 3 ± 3%
- inhibition at 1 µM [16]: 3%
- inhibition at 10 µM [17]: 0%
- inhibition at 1 µM [17]: 0%

Structure (SMILES): COc1cccc(OC)c1C(=O)N[C@@H]1C(=O)N2[C@@H]1SC(C)(C)[C@@H]2C(=O)O [methicillin]
- mutation frequency (S. aureus): ~10^−9

Structure (SMILES): Cc1onc(-c2ccccc2)c1C(=O)N[C@@H]1C(=O)N2[C@@H]1SC(C)(C)[C@@H]2C(=O)O [oxacillin]
- mutation frequency (S. aureus): ~10^−9
